Test results published in ChEMBL document CHEMBL3870317, “FtsZ inhibition and redox modulation with one chemical scaffold: Potential use of dihydroquinolines against mycobacteria” (Eur J Med Chem, 2016).
Converted amounts (≈) assume the structure as drawn. The source made the active and inactive calls. No cut-off for these calls is given here.

Columns and labels:
[1] = system: Mycobacterium tuberculosis; test: Inhibition of Mycobacterium tuberculosis FtsZ polymerization at 50 uM measured after 1 hr by sodium tungstate staining based transmission electron microscopic method
[2] = (§1) Inhibition of recombinant Mycobacterium tuberculosis FtsZ polymerization expressed in Escherichia coli assessed as inhibition of protofilament formation by measuring intensity of light scattering in presence of GTP by fluorescence spectrophotometry method
[3] = (§2) Inhibition of recombinant Mycobacterium tuberculosis FtsZ GTPase activity expressed in Escherichia coli assessed as inorganic phosphate release measured after 15 mins in presence of GTP using malachite green dye by fluorescence spectrophotometry
[4] = system: Mycolicibacterium smegmatis; test: Antimycobacterial activity against Mycobacterium smegmatis MC2 155 measured after 48 hrs by resazurin dye-based MABA method; type: functional; conditions: str. MC2 155, 48 h
[5] = system: Mycobacterium tuberculosis; test: as §1
[6] = system: Mycobacterium tuberculosis; test: as §2
[7] = system: Mycobacterium tuberculosis; test: Inhibition of recombinant Mycobacterium tuberculosis FtsZ GTPase activity expressed in Escherichia coli assessed as inorganic phosphate release at 50 uM measured after 15 mins in presence of GTP using malachite green dye by fluorescence spectrophotometry relative to control
[8] = system: Mycobacterium tuberculosis; test: Inhibition of recombinant Mycobacterium tuberculosis FtsZ expressed in Escherichia coli assessed as inhibition of protofilament formation by measuring intensity of light scattering at 400 nM up to 300 sec in presence of GTP by fluorescence spectrophotometry
[9] = target: T1, Cell division protein FtsZ (Bacillus subtilis (strain 168)) (UniProt P17865); test: Binding affinity to Bacillus subtilis 168 FtsZ assessed as effect on Z-ring assembly at 100 uM by FITC-staining based immunofluorescence microscopic method; conditions: Bacillus subtilis subsp. subtilis str. 168
T1 sequence (whole entry): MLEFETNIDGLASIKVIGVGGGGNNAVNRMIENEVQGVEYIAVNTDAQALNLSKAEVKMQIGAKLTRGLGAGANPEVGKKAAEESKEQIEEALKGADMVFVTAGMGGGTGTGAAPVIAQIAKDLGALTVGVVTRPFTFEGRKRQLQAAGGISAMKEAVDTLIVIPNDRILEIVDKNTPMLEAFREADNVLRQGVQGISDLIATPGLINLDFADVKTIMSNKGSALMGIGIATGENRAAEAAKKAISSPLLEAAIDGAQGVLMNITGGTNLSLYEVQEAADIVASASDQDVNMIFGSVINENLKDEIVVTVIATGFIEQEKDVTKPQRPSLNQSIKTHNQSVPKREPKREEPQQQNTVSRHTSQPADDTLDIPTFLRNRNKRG

[10] = target: T1, Cell division protein FtsZ (Bacillus subtilis (strain 168)); test: Inhibition of recombinant Bacillus subtilis 168 FtsZ assessed as increase in cell length at 50 uM measured after 2 hrs by phase contrast microscopy relative to control; conditions: Bacillus subtilis subsp. subtilis str. 168
[11] = system: Mycobacterium tuberculosis; test: Inhibition of recombinant Mycobacterium tuberculosis FtsZ expressed in Escherichia coli assessed as inhibition of protofilament formation by measuring intensity of light scattering at 400 nM after 1000 sec in presence of GTP by fluorescence spectrophotometry
[12] = system: Mycolicibacterium smegmatis; test: Induction of ROS generation in Mycobacterium smegmatis MC2 155 assessed as release of DCF at 25 to 50 uM measured after 1 hr by DCFH-DA based fluorescence spectrophotometry; type: functional; conditions: str. MC2 155
[13] = system: Mycobacterium tuberculosis; test: Displacement of ANS from recombinant Mycobacterium tuberculosis FtsZ expressed in Escherichia coli assessed as red shift at 20 to 140 uM after 30 mins by fluorescence analysis
[14] = Displacement of ANS from recombinant Mycobacterium tuberculosis FtsZ expressed in Escherichia coli by double reciprocal plot analysis
[15] = system: Mycolicibacterium smegmatis MC2 155; test: Inhibition of recombinant Mycobacterium smegmatis MC2 155 FtsZ assessed as increase in cell length at 50 uM measured after 2 hrs by phase contrast microscopy relative to control
Bacillus subtilis = test: Induction of ROS generation in Bacillus subtillis 168 assessed as DCF release at 25 to 50 uM measured after 1 hr by DCFH-DA based fluorescence microscopy; type: functional; conditions: subsp. subtilis str. 168

SMILES | IC50 ([2]; read-out: IC50) | IC50 ([3]; read-out: IC50) | MIC [4] | also measured
COC(=O)C1=Cc2cc([N+](=O)[O-])c(Cl)cc2N([C@@H](C)c2ccccc2)C1 | 41.4 µM | 40 µM | 15 µg/mL (≈ 40.2 µM) | inhibition [1]: Active
C[C@H](c1ccccc1)N1CC(C(=O)O)=Cc2cc([N+](=O)[O-])ccc21 | 40.9 µM | 25.3 µM | 7.5 µg/mL (≈ 23.1 µM) | inhibition [5]: Dose-dependent effect; inhibition [6]: Dose-dependent effect
COCCCN1CC(C(=O)OC)=Cc2cc([N+](=O)[O-])ccc21 | 88.6 µM | 89.3 µM | 1.95 µg/mL (≈ 6.37 µM) | inhibition [5]: Dose-dependent effect; inhibition [6]: Dose-dependent effect
CO[C@H]1/C=C/O[C@@]2(C)Oc3c(C)c(O)c4c(O)c(c(/C=N/N5CCN(C)CC5)c(O)c4c3C2=O)NC(=O)/C(C)=C\C=C\[C@H](C)[C@H](O)[C@@H](C)[C@@H](O)[C@@H](C)[C@H](OC(C)=O)[C@@H]1C [RIFAMPIN] |  |  | 1.75 µg/mL (≈ 2.13 µM) | 
CC(=O)C1=Cc2cc([N+](=O)[O-])ccc2N(Cc2ccccc2)C1 | > 200 µM | > 200 µM | 7.5 µg/mL (≈ 24.3 µM) | 
O=C(O)C1=Cc2cc([N+](=O)[O-])ccc2N(Cc2ccccc2)C1 | 95 µM | 86.6 µM | 31.2 µg/mL (≈ 101 µM) | 
CCN1CC(C(=O)OC)=Cc2cc(F)c(F)cc21 | 210 µM | 196 µM | 0.9 µg/mL (≈ 3.55 µM) | inhibition [5]: Dose-dependent effect; inhibition [6]: Dose-dependent effect
COC(=O)C1=Cc2cc([N+](=O)[O-])ccc2N(Cc2ccccc2)C1 | 184 µM | 197 µM | 31.5 µg/mL (≈ 97.1 µM) | 
COC(=O)C1=Cc2cc([N+](=O)[O-])ccc2N(Cc2ccccn2)C1 | 194 µM | 186 µM | 62.5 µg/mL (≈ 192 µM) | 
COC(=O)C1=Cc2cc([N+](=O)[O-])ccc2N([C@@H](C)C(=O)OC)C1 |  |  |  | IC50 [2]: Nd(Insoluble); IC50 [3]: Nd(Insoluble)
CC(C)(C)OC(=O)C1=Cc2cc([N+](=O)[O-])ccc2N(Cc2ccccc2)C1 | > 200 µM | > 200 µM | 7.5 µg/mL (≈ 20.5 µM) | 
CCN1CC(C(=O)OC)=Cc2cc([N+](=O)[O-])ccc21 |  |  |  | IC50 [2]: Nd(Insoluble); IC50 [3]: Nd(Insoluble)
CC(C)c1c(O)ccc2c1CC[C@H]1C(C)(C)CCC[C@]21C |  |  |  | inhibition [7]: 73 to 74%
COC(=O)C1=Cc2ccccc2N(S(=O)(=O)c2ccc(C)cc2)C1 |  |  |  | IC50 [2]: Nd(Insoluble); IC50 [3]: Nd(Insoluble)
COc1ccc2cc3[n+](cc2c1OC)CCc1cc2c(cc1-3)OCO2 |  |  |  | inhibition [7]: 79 to 80%
CN[C@@H]1[C@H](O[C@H]2[C@H](O[C@H]3[C@H](O)[C@@H](O)[C@H](N=C(N)N)[C@@H](O)[C@@H]3N=C(N)N)O[C@@H](C)[C@]2(O)C=O)O[C@@H](CO)[C@H](O)[C@H]1O [STREPTOMYCIN] |  |  | 3 µg/mL (≈ 5.16 µM) | 
COC(=O)C1=Cc2cc([N+](=O)[O-])ccc2N([C@@H](CO)C(=O)OC)C1 | 33.4 µM | 39 µM | 7.5 µg/mL (≈ 22.3 µM) | inhibition [1]: Active; inhibition [8]: Active; Activity [9]: Active; fold change (FC) [10]: 6; inhibition [11]: Dose-dependent effect; Activity [12]: Active; inhibition [5]: Dose-dependent effect; inhibition [6]: Dose-dependent effect; inhibition [13]: Active; Kd [14]: 8.6 µM; fold change (FC) [15]: 4; Activity (Bacillus subtilis): Active
CCN(CC)CCN1CC(C(=O)OC)=Cc2cc([N+](=O)[O-])ccc21 | 34 µM | 38.3 µM | 7.5 µg/mL (≈ 22.5 µM) | inhibition [5]: Dose-dependent effect; inhibition [6]: Dose-dependent effect
CCCCN1CC(C(=O)OC)=Cc2cc([N+](=O)[O-])ccc21 | > 200 µM | > 200 µM | 7.5 µg/mL (≈ 25.8 µM) | 
COC(=O)C1=Cc2cc([N+](=O)[O-])ccc2N(Cc2ccc3c(c2)OCO3)C1 | 77.3 µM | 78.5 µM | 0.95 µg/mL (≈ 2.58 µM) | inhibition [5]: Dose-dependent effect; inhibition [6]: Dose-dependent effect
COC(=O)C1=Cc2cc([N+](=O)[O-])ccc2N(CCO)C1 | 40.1 µM | 41.5 µM | 3.9 µg/mL (≈ 14 µM) | 
COC(=O)C1=Cc2cc3ccccc3nc2N([C@@H](CO)C(=O)OC)C1 | 61.5 µM | 66 µM | 15 µg/mL (≈ 43.8 µM) | 
